Drawing on patent publication US11667668B2, “Compositions and methods for treating CNS disorders” (Sage Therapeutics, Inc., priority 2017, dated 2023), this text covers IC50 for two molecules.

This test deals with rat brain cortical membranes ([35S]-TBPS binding; GABAA receptor). Nature of the test: Steroid inhibition of [35S]-TBPS binding. The settings on record: 3 nM [35S]-TBPS, in the presence of 5 mM GABA, 90 min at room temp. How it is done: [35S]-t-Butylbicyclophosphorothionate (TBPS) binding assays using rat brain cortical membranes in the presence of 5 mM GABA has been described (Gee et al, J. Pharmacol. Exp. Ther. 1987, 241, 346-353; Hawkinson et al, Mol. Pharmacol. 1994, 46, 977-985; Lewin, A. H et al., Mol. Pharmacol. 1989, 35, 189-194).
Briefly, cortices are rapidly removed following decapitation of carbon dioxide-anesthetized Sprague-Dawley rats (200-250 g). The cortices are homogenized in 10 volumes of ice-cold 0.32 M sucrose using a glass/teflon homogenizer and centrifuged at 1500×g for 10 min at 4° C. The resultant supernatants are centrifuged at 10,000×g for 20 min at 4° C. to obtain the P2 pellets. The P2 pellets are resuspended in 200 mM NaCl/50 mM Na—K phosphate pH 7.4 buffer and centrifuged at 10,000×g for 10 min at 4° C. This washing procedure is repeated twice and the pellets are resuspended in 10 volumes of buffer. Aliquots ([…]) of the membrane suspensions are incubated with 3 nM [35S]-TBPS and 5 mL aliquots of test drug dissolved in dimethyl sulfoxide (DMSO) (final 0.5%) in the presence of 5 mM GABA. The incubation is brought to a final volume of 1.0 mL with buffer. Nonspecific binding is determined in the presence of […] and ranged from 15 to 25%. […] Filter bound radioactivity is measured by liquid scintillation spectrometry. […]

As for `[2H]C([2H])([2H])[C@@]1(O)CC[C@H]2[C@H](CC[C@@H]3[C@@H]2CC[C@]2(C)[C@@H](C(=O)Cn4cc(C#N)cn4)CC[C@@H]32)C1` [Compound 1, 1-(2-((3R,5R,8R,9R,10S,13S,14S,17S)-3-hydroxy-13-methyl-3-(methyl-d3)hexadecahydro-1H-cyclopenta[a]phenanthren-17-yl)-2-oxoethyl)-1H-pyrazole-4-carbonitrile], the IC50 (in general, the point on the concentration scale where inhibition reaches its midpoint) is below 10 nM.
For `[2H][C@]1(C(=O)Cn2cc(C#N)cn2)CC[C@H]2[C@@H]3CC[C@@H]4C[C@](C)(O)CC[C@@H]4[C@H]3CC[C@@]21C` [Compound A10, 1-(2-((3R,5R,8R,9R,10S,13S,14S,17S)-3-hydroxy-3,13-dimethylhexadecahydro-1H-cyclopenta[a]phenanthren-17-yl-17-d)-2-oxoethyl)-1H-pyrazole-4-carbonitrile], the IC50 is below 10 nM.
